According to patent publication US20260241046A1, “PROSTATE-SPECIFIC MEMBRANE ANTIGEN RECEPTOR-TARGETING RADIOPHARMACEUTICALS AND USES THEREOF” (Nuclidium AG, priority 2024, published 2026):

System: LNCaP xenografted mice
Test: PET/CT imaging in mice
Assay type: in vivo
Description: Unless otherwise specified, the in vivo studies were performed on athymic nude Foxn1^nu 4-6-week-old mice. Animals were injected in the shoulder with LNCaP cells (10^7 cells/200 μL) suspended in 1:1 (v: v) EMEM EBS medium and Matrigel. The in vivo experiments were performed when tumors reached a volume between 100-500 mm^3. At the intervention, all mice were between 7 and 11 weeks old. All animal experiments were performed following the guidelines for the use of living animals in scientific studies and the Swiss regulations for the protection of animals.
LNCap xenografted mice were injected i.v. into the tail vein with 4-8 MBq (400 pmol) of [^61Cu]Cu-NODAGA-PSMA I&T diluted in 100 μL saline solution. Dynamic PET scans were acquired for 1 hour upon injection of the radiotracer. The mice were euthanized using carbon dioxide at 4 hours post-injection, the bladder was mechanically emptied, and static PET scans were acquired for 30 min. PET images were obtained using the β-CUBE PET scanner system (MOLECUBES, Gent, Belgium) and were decay corrected and reconstructed with the VivoQuant software version 4.0. Tomograms and helical CT scans of the whole mouse were first acquired using a NanoSPECT/CTTM scanner (Bioscan Inc.). CT images were reconstructed using CTReco (version r1.146), resulting in a pixel size of 0.2 mm. […]

With O=C([O-])CN1CCN(CC(=O)[O-])CCN([C@H](CCC(=O)N[C@H](Cc2ccc(O)c(I)c2)C(=O)N[C@H](Cc2ccccc2)C(=O)N[C@H](CCCCNC(=O)CCCCCCC(=O)NCCCC[C@H](NC(=O)N[C@@H](CCC(=O)O)C(=O)O)C(=O)O)C(=O)O)C(=O)O)CC1.[61Cu+2] [[^61Cu]Cu-NODAGA-PSMA I&T] the “time of maximum accumulation in the tumor” value was 1 hour post-injection and the “time of optimal tumor-to-background signal ratio” value was 4 hours post-injection.
